From PubChem BioAssay (NCI)
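Method: 48-hour compound exposure of cells in 96-well plates, five concentrations, linear interpolation of endpoints. Definition used: TGI = concentration required for complete inhibition of growth.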

Key:
Experiment in all cases: inhibition of tumour cell growth, NCI panel, 48 h
MCF7 breast = test system: MCF7 breast
M14 melanoma = test system: M14 melanoma
K-562 leukemia = test system: K-562 leukemia
HL-60(TB) leukemia = test system: HL-60(TB) leukemia
HOP-92 NSCLC = test system: HOP-92 NSCLC
SF-539 CNS = test system: SF-539 CNS
COLO 205 colon = test system: COLO 205 colon
SK-MEL-2 melanoma = test system: SK-MEL-2 melanoma
UO-31 renal = test system: UO-31 renal
HCC-2998 colon = test system: HCC-2998 colon
SK-MEL-28 melanoma = test system: SK-MEL-28 melanoma
T-47D breast = test system: T-47D breast
NCI-H23 lung = test system: NCI-H23 lung
NCI/ADR-RES ovarian = test system: NCI/ADR-RES ovarian
IGROV1 ovarian = test system: IGROV1 ovarian
CCRF-CEM leukemia = test system: CCRF-CEM leukemia
LOX IMVI melanoma = test system: LOX IMVI melanoma
SR leukemia = test system: SR leukemia

## Cc1c2c(OCC(O)CN3CCN(c4ccccc4)CC3)nn(C)c(=O)c2c(C)n1-c1ccccc1 (configuration not stated)
MCF7 breast
  TGI: 36.5 µM
M14 melanoma
  TGI: 30.7 µM
K-562 leukemia
  TGI: 69.2 µM
HL-60(TB) leukemia
  TGI: 49.1 µM
HOP-92 NSCLC
  TGI: > 100 µM
SF-539 CNS
  TGI: 33.6 µM
COLO 205 colon
  TGI: 39.6 µM
SK-MEL-2 melanoma
  TGI: 33.1 µM
UO-31 renal
  TGI: 43.2 µM
HCC-2998 colon
  TGI: 78.3 µM
SK-MEL-28 melanoma
  TGI: 40.2 µM
T-47D breast
  TGI: 71.8 µM
NCI-H23 lung
  TGI: 46.4 µM
NCI/ADR-RES ovarian
  TGI: 63.8 µM
IGROV1 ovarian
  TGI: > 100 µM
CCRF-CEM leukemia
  TGI: > 100 µM

## CCSc1cc2c(cc1O)CC[C@@H]1[C@@H]2CC[C@]2(C)[C@@H](O)CC[C@@H]12
MCF7 breast
  TGI: 27.5 µM
K-562 leukemia
  TGI: 21 µM
HL-60(TB) leukemia
  TGI: > 100 µM
HOP-92 NSCLC
  TGI: 24.3 µM
SF-539 CNS
  TGI: 34.3 µM
COLO 205 colon
  TGI: 32.3 µM
SK-MEL-2 melanoma
  TGI: 37.7 µM
UO-31 renal
  TGI: 30.1 µM
LOX IMVI melanoma
  TGI: 23 µM
HCC-2998 colon
  TGI: 27.5 µM
SK-MEL-28 melanoma
  TGI: 28.9 µM
NCI-H23 lung
  TGI: 44.3 µM
NCI/ADR-RES ovarian
  TGI: 26.9 µM
IGROV1 ovarian
  TGI: 25 µM
CCRF-CEM leukemia
  TGI: 30.8 µM

## O=C(CCCN1CCC2(CC1)CC(=O)N(N1CCOCC1)C2=O)c1ccc(F)cc1
MCF7 breast
  TGI: > 100 µM
M14 melanoma
  TGI: > 100 µM
K-562 leukemia
  TGI: > 100 µM
HL-60(TB) leukemia
  TGI: > 100 µM
SF-539 CNS
  TGI: > 100 µM
COLO 205 colon
  TGI: > 100 µM
SK-MEL-2 melanoma
  TGI: > 100 µM
UO-31 renal
  TGI: > 100 µM
LOX IMVI melanoma
  TGI: > 100 µM
SK-MEL-28 melanoma
  TGI: > 100 µM
T-47D breast
  TGI: > 100 µM
NCI-H23 lung
  TGI: > 100 µM
NCI/ADR-RES ovarian
  TGI: > 100 µM
IGROV1 ovarian
  TGI: > 100 µM
CCRF-CEM leukemia
  TGI: > 100 µM

## CCOC(=O)C(C(=O)OCC)c1ccc([N+](=O)[O-])o1
M14 melanoma
  TGI: 26.6 µM
K-562 leukemia
  TGI: > 30.7 µM
HL-60(TB) leukemia
  TGI: > 22.3 µM
HOP-92 NSCLC
  TGI: 15 µM
SF-539 CNS
  TGI: 35.9 µM
COLO 205 colon
  TGI: 10.4 µM
SR leukemia
  TGI: > 26.4 µM
SK-MEL-2 melanoma
  TGI: 34.1 µM
UO-31 renal
  TGI: 29 µM
LOX IMVI melanoma
  TGI: 9.41 µM
HCC-2998 colon
  TGI: 31.3 µM
SK-MEL-28 melanoma
  TGI: 27.1 µM
NCI-H23 lung
  TGI: 32.3 µM
IGROV1 ovarian
  TGI: 42.1 µM
CCRF-CEM leukemia
  TGI: > 22.8 µM

## CC1=NC2c3c(-c4ccc(Cl)cc4)cn(-c4ccc(C)cc4)c3N=CN2N1 (configuration not stated)
MCF7 breast
  TGI: > 100 µM
M14 melanoma
  TGI: > 100 µM
K-562 leukemia
  TGI: > 100 µM
HL-60(TB) leukemia
  TGI: > 100 µM
HOP-92 NSCLC
  TGI: 63.3 µM
SF-539 CNS
  TGI: > 100 µM
COLO 205 colon
  TGI: > 100 µM
SR leukemia
  TGI: > 100 µM
SK-MEL-2 melanoma
  TGI: > 100 µM
UO-31 renal
  TGI: > 100 µM
LOX IMVI melanoma
  TGI: > 100 µM
HCC-2998 colon
  TGI: > 100 µM
SK-MEL-28 melanoma
  TGI: > 100 µM
NCI-H23 lung
  TGI: > 100 µM
NCI/ADR-RES ovarian
  TGI: > 100 µM
IGROV1 ovarian
  TGI: > 100 µM
CCRF-CEM leukemia
  TGI: > 100 µM

## O=c1/c(=C/c2ccc([N+](=O)[O-])o2)sc2n1[C@@H](c1ccc(Cl)cc1)C=C(c1cc(F)c(Cl)cc1Cl)N=2
MCF7 breast
  TGI: 32.2 µM
M14 melanoma
  TGI: 29.1 µM
K-562 leukemia
  TGI: 36.9 µM
HL-60(TB) leukemia
  TGI: 49.2 µM
HOP-92 NSCLC
  TGI: 28.5 µM
SF-539 CNS
  TGI: 69 µM
COLO 205 colon
  TGI: 16.2 µM
SK-MEL-2 melanoma
  TGI: 17.6 µM
UO-31 renal
  TGI: 32.5 µM
LOX IMVI melanoma
  TGI: 33.6 µM
SK-MEL-28 melanoma
  TGI: > 100 µM
T-47D breast
  TGI: 52.7 µM
NCI-H23 lung
  TGI: 39.4 µM
NCI/ADR-RES ovarian
  TGI: > 100 µM
IGROV1 ovarian
  TGI: 31.7 µM
CCRF-CEM leukemia
  TGI: > 100 µM

## CCOC(=O)C1C(C)C2(C#N)C(=N)OC1(C)C2(C#N)C#N (configuration not stated)
MCF7 breast
  TGI: > 100 µM
M14 melanoma
  TGI: > 100 µM
K-562 leukemia
  TGI: > 100 µM
HL-60(TB) leukemia
  TGI: 60.3 µM
HOP-92 NSCLC
  TGI: 97.1 µM
SF-539 CNS
  TGI: > 100 µM
COLO 205 colon
  TGI: > 100 µM
SK-MEL-2 melanoma
  TGI: > 100 µM
UO-31 renal
  TGI: > 100 µM
LOX IMVI melanoma
  TGI: 67.1 µM
SK-MEL-28 melanoma
  TGI: > 100 µM
T-47D breast
  TGI: > 100 µM
NCI-H23 lung
  TGI: > 100 µM
NCI/ADR-RES ovarian
  TGI: > 100 µM
IGROV1 ovarian
  TGI: > 100 µM

## CC(C)CC(=O)NC(C(=O)NC(C(=O)NC(CC(C)C)C(O)CC(=O)NC(C)C(=O)NC(CC(C)C)C(O)CC(=O)O)C(C)C)C(C)C (configuration not stated)
MCF7 breast
  TGI: > 100 µM
M14 melanoma
  TGI: > 100 µM
K-562 leukemia
  TGI: > 100 µM
HOP-92 NSCLC
  TGI: > 100 µM
SF-539 CNS
  TGI: > 100 µM
COLO 205 colon
  TGI: > 100 µM
SR leukemia
  TGI: > 100 µM
SK-MEL-2 melanoma
  TGI: > 100 µM
UO-31 renal
  TGI: > 100 µM
LOX IMVI melanoma
  TGI: > 100 µM
HCC-2998 colon
  TGI: > 100 µM
SK-MEL-28 melanoma
  TGI: > 100 µM
NCI-H23 lung
  TGI: > 100 µM
NCI/ADR-RES ovarian
  TGI: > 100 µM
IGROV1 ovarian
  TGI: > 100 µM
CCRF-CEM leukemia
  TGI: > 100 µM

## C=CCN1COc2c(cc3c4c(cccc24)C(=O)O3)C1
M14 melanoma
  TGI: 50.1 µM
K-562 leukemia
  TGI: 68.6 µM
HL-60(TB) leukemia
  TGI: 50.3 µM
HOP-92 NSCLC
  TGI: 30.5 µM
COLO 205 colon
  TGI: 33.1 µM
SK-MEL-2 melanoma
  TGI: > 100 µM
UO-31 renal
  TGI: 40.8 µM
LOX IMVI melanoma
  TGI: > 10 µM
HCC-2998 colon
  TGI: > 100 µM
SK-MEL-28 melanoma
  TGI: 57.2 µM
NCI-H23 lung
  TGI: 47 µM
IGROV1 ovarian
  TGI: > 100 µM
CCRF-CEM leukemia
  TGI: 44.8 µM

## CC1(C)CC(=O)C2=C(C1)NC1=C(C2)C(=O)CC(C)(C)C1
MCF7 breast
  TGI: > 100 µM
M14 melanoma
  TGI: > 100 µM
K-562 leukemia
  TGI: > 100 µM
HL-60(TB) leukemia
  TGI: > 100 µM
SF-539 CNS
  TGI: > 100 µM
COLO 205 colon
  TGI: > 100 µM
SR leukemia
  TGI: > 100 µM
UO-31 renal
  TGI: > 100 µM
LOX IMVI melanoma
  TGI: > 100 µM
HCC-2998 colon
  TGI: > 100 µM
SK-MEL-28 melanoma
  TGI: > 100 µM
NCI-H23 lung
  TGI: > 100 µM
NCI/ADR-RES ovarian
  TGI: > 100 µM
IGROV1 ovarian
  TGI: > 100 µM
CCRF-CEM leukemia
  TGI: > 100 µM

## Nc1ccc(Oc2ccc(C3(c4ccc(Oc5ccc(N)cc5)cc4)C4CC5CC(C4)CC3C5)cc2)cc1
MCF7 breast
  TGI: > 52.7 µM
M14 melanoma
  TGI: 17 µM
K-562 leukemia
  TGI: > 100 µM
HL-60(TB) leukemia
  TGI: 44.3 µM
HOP-92 NSCLC
  TGI: 35.9 µM
SF-539 CNS
  TGI: > 66.2 µM
COLO 205 colon
  TGI: > 100 µM
SR leukemia
  TGI: 20.3 µM
SK-MEL-2 melanoma
  TGI: > 100 µM
UO-31 renal
  TGI: 21.4 µM
LOX IMVI melanoma
  TGI: > 28.4 µM
SK-MEL-28 melanoma
  TGI: > 77.9 µM
NCI-H23 lung
  TGI: > 48.3 µM
NCI/ADR-RES ovarian
  TGI: > 100 µM
IGROV1 ovarian
  TGI: > 44.5 µM
CCRF-CEM leukemia
  TGI: 35.8 µM

## C[Si](C)(N[Si](C)(C)OCCc1ccccc1)OCCc1ccccc1
MCF7 breast
  TGI: > 100 µM
M14 melanoma
  TGI: > 100 µM
HL-60(TB) leukemia
  TGI: > 100 µM
HOP-92 NSCLC
  TGI: > 100 µM
SK-MEL-2 melanoma
  TGI: > 100 µM
UO-31 renal
  TGI: > 100 µM
LOX IMVI melanoma
  TGI: > 100 µM
HCC-2998 colon
  TGI: > 100 µM
SK-MEL-28 melanoma
  TGI: > 100 µM
T-47D breast
  TGI: > 100 µM
NCI-H23 lung
  TGI: > 100 µM
NCI/ADR-RES ovarian
  TGI: > 100 µM
IGROV1 ovarian
  TGI: > 100 µM
CCRF-CEM leukemia
  TGI: > 100 µM

## CC(=O)C1Cn2c(=O)c3cc4ccccc4cc3c(=O)n2C=C1C (configuration not stated)
M14 melanoma
  TGI: > 100 µM
K-562 leukemia
  TGI: > 100 µM
HL-60(TB) leukemia
  TGI: > 100 µM
HOP-92 NSCLC
  TGI: > 100 µM
SF-539 CNS
  TGI: > 100 µM
COLO 205 colon
  TGI: > 100 µM
SR leukemia
  TGI: > 100 µM
SK-MEL-2 melanoma
  TGI: > 100 µM
UO-31 renal
  TGI: > 100 µM
LOX IMVI melanoma
  TGI: > 100 µM
HCC-2998 colon
  TGI: > 100 µM
SK-MEL-28 melanoma
  TGI: > 100 µM
NCI-H23 lung
  TGI: > 100 µM
IGROV1 ovarian
  TGI: > 100 µM
CCRF-CEM leukemia
  TGI: > 100 µM

## C/C(CC(=O)Nc1cc(C)ccc1C)=N/N=C(N)N
M14 melanoma
  TGI: > 100 µM
K-562 leukemia
  TGI: > 100 µM
HL-60(TB) leukemia
  TGI: > 100 µM
HOP-92 NSCLC
  TGI: > 100 µM
SF-539 CNS
  TGI: > 100 µM
COLO 205 colon
  TGI: > 100 µM
SK-MEL-2 melanoma
  TGI: > 100 µM
UO-31 renal
  TGI: > 100 µM
LOX IMVI melanoma
  TGI: > 100 µM
HCC-2998 colon
  TGI: > 100 µM
SK-MEL-28 melanoma
  TGI: > 100 µM
NCI-H23 lung
  TGI: > 100 µM
IGROV1 ovarian
  TGI: > 100 µM
CCRF-CEM leukemia
  TGI: > 100 µM
